Laboratory results as given in US20230132133A1, “METHODS AND COMPOSITIONS FOR THE TREATMENT OF C. DIFFICILE” (priority 2018, published 2023).
Values after ≈ are worked out from the molar mass of the structure shown.

Tests used:
[1] = system: B. amyloliquefaciens ART24; assay: Antibiotic MIC following EFSA testing recommendations on lyophilized ART24 lots and cell banks; type: cell-based, Bacillus amyloliquefaciens; details: for MIC: Bacillus amyloliquefaciens, read-out: MIC for ART24
From the text: The minimum inhibitory concentration (MIC) of the listed antimicrobials is expressed as µg/mL.

[2] = system: B. amyloliquefaciens ART4; assay: Antibiotic MIC, VetMIC Lact-1 & Lact-2 panels; type: cell-based, Bacillus amyloliquefaciens; details: average results from N= 6, 24 hr at 37° C.; for MIC: Bacillus amyloliquefaciens, ART4
Protocol: (§1) The wells of the prefabricated 96-well plates were filled with 100 μL of the final suspension. The plates were sealed with an […], Sigma Aldrich) sealing film (to facilitate growth of the aerobic Bacillus strains. The plates were then incubated for 24 hr at 37° C. The results are recorded after 24 hours as the lowest concentration of the antibiotic to inhibit visible growth. The prefabricated panels […], Uppsala, Sweden) comprising the antibiotics ampicillin, vancomycin, gentamicin, kanamycin, streptomycin, erythromycin, clindamycin, tetracycline, chloramphenicol, neomycin, penicillin, quinupristin-dalfopristin, linezolid, trimethoprim, ciprofloxacin and rifampicin were used.

[3] = system: B. amyloliquefaciens ART24; assay: Antibiotic MIC, VetMIC Lact-1 & Lact-2 panels; type: cell-based, Bacillus amyloliquefaciens; details: average results from N= 6, 24 hr at 37° C.; for MIC: Bacillus amyloliquefaciens, ART24
Protocol: as §1

[4] = system: B. amyloliquefaciens ART12; assay: Antibiotic MIC, VetMIC Lact-1 & Lact-2 panels; type: cell-based, Bacillus amyloliquefaciens; details: average results from N= 6, 24 hr at 37° C.; for MIC: Bacillus amyloliquefaciens, ART12
Protocol: as §1

[5] = system: B. amyloliquefaciens ART4; assay: MIC of metronidazole and fidaxomicin, CLSI standard method; type: cell-based; details: Bacillus amyloliquefaciens, triplicates, 16 hours, read-out: MIC against ART4
Protocol: (§2) Briefly, minimum inhibitory concentration assays were carried out in triplicate using 96-well plates (Sarstedt). Two-fold serial dilutions from an initial concentration of 512 µg/mL of each antibiotic were carried out in BHI broth (Merck). An overnight of the target strain was subcultured and incubated to an OD600 nm of 0.5 before being diluted to give a final inoculum of 10^5 cfu/ml in 200 µL and added to the antibiotic preparations. The plates were incubated at an appropriate temperature and inspected after 16 hours. The MIC was determined as the lowest concentration at which no growth was visible.

[6] = system: B. amyloliquefaciens ART24; assay: as above; type: cell-based; details: Bacillus amyloliquefaciens, triplicates, 16 hours, read-out: MIC against ART24
Protocol: as §2

[7] = system: B. amyloliquefaciens ART12; assay: as above; type: cell-based; details: Bacillus amyloliquefaciens, triplicates, 16 hours, read-out: MIC against ART12
Protocol: as §2

Row | Compound | MIC ([1]; ART24, source CO-33-12A2) [µg/mL] | MIC ([1]; ART24, source CO-33 ART 24 BHI) [µg/mL] | MIC ([1]; ART24, source CO-33 ART 024 S) [µg/mL] | MIC ([1]; ART24, source YD CO-33-10A2) [µg/mL] | MIC interpretation for ART24 ([1]; source CO-33-12A2) | MIC interpretation for ART24 ([1]; source CO-33 ART 24 BHI) | MIC interpretation for ART24 ([1]; source CO-33 ART 024 S) | MIC interpretation for ART24 ([1]; source YD CO-33-10A2) | MIC [2] [µg/mL] | MIC [3] [µg/mL] | MIC [4] [µg/mL] | further results
1 | [H]/N=C(/N)N[C@H]1[C@H](O)[C@@H](O)[C@H](O[C@@H]2O[C@@H](C)[C@](O)(C=O)[C@H]2O[C@@H]2O[C@@H](CO)[C@H](O)[C@@H](O)[C@@H]2NC)[C@@H](N/C(N)=N\[H])[C@@H]1O [Streptomycin] | 1 (≈ 1.72 µM) | 1 (≈ 1.72 µM) | 2 (≈ 3.44 µM) | 1 (≈ 1.72 µM) | S | S | S | S | 4 (≈ 6.88 µM) | 4 (≈ 6.88 µM) | 4 (≈ 6.88 µM) | 
2 | Neomycin |  |  |  |  |  |  |  |  |  |  |  | MIC for ART24 ([1]; source CO-33-12A2): ≤0.12 µg/mL; MIC for ART24 ([1]; source CO-33 ART 24 BHI): ≤0.12 µg/mL; MIC for ART24 ([1]; source CO-33 ART 024 S): ≤0.12 µg/mL; MIC for ART24 ([1]; source YD CO-33-10A2): ≤0.12 µg/mL; B. amyloliquefaciens MIC ART4 [2]: ≤0.5 µg/mL; B. amyloliquefaciens MIC ART24 [3]: ≤0.5 µg/mL; B. amyloliquefaciens MIC ART12 [4]: ≤0.5 µg/mL
3 | CC[C@H]1OC(=O)[C@H](C)[C@@H](O[C@H]2C[C@@](C)(OC)[C@@H](O)[C@H](C)O2)[C@H](C)[C@@H](O[C@@H]2O[C@H](C)C[C@H](N(C)C)[C@H]2O)[C@](C)(O)C[C@@H](C)C(=O)[C@H](C)[C@@H](O)[C@]1(C)O [Erythromycin] | 0.06 (≈ 0.0818 µM) | 0.12 (≈ 0.164 µM) | 0.12 (≈ 0.164 µM) | 0.06 (≈ 0.0818 µM) | S | S | S | S | 0.12 (≈ 0.164 µM) | 0.12 (≈ 0.164 µM) | 0.12 (≈ 0.164 µM) | 
4 | CCC[C@@H]1C[C@@H](C(=O)N[C@@H]([C@H]2O[C@H](SC)[C@H](O)[C@@H](O)[C@H]2O)[C@H](C)Cl)N(C)C1 [Clindamycin] | 0.25 (≈ 0.588 µM) | 0.25 (≈ 0.588 µM) | 0.25 (≈ 0.588 µM) | 0.12 (≈ 0.282 µM) | S | S | S | S | 0.5 (≈ 1.18 µM) | 0.5 to 1 (≈ 1.18 to 2.35 µM) | 1 (≈ 2.35 µM) | 
5 | CN(C)[C@@H]1C(O)=C(C(N)=O)C(=O)[C@@]2(O)C(O)=C3C(=O)c4c(O)cccc4[C@@](C)(O)[C@H]3C[C@@H]12 [Tetracycline] | 2 (≈ 4.5 µM) | 2 (≈ 4.5 µM) | 2 (≈ 4.5 µM) | 2 (≈ 4.5 µM) | S | S | S | S | 1 (≈ 2.25 µM) | 4 (≈ 9 µM) | 8 (≈ 18 µM) | 
6 | CC(=O)NC[C@H]1CN(c2ccc(N3CCOCC3)c(F)c2)C(=O)O1 [Linezolid] | 0.5 (≈ 1.48 µM) | 0.5 (≈ 1.48 µM) | 0.5 (≈ 1.48 µM) | 0.25 (≈ 0.741 µM) |  |  |  |  | 0.5 (≈ 1.48 µM) | 0.5 (≈ 1.48 µM) | 0.5 (≈ 1.48 µM) | 
7 | Quinupristin-dalfopristin |  |  |  |  |  |  |  |  |  |  |  | MIC for ART24 ([1]; source CO-33-12A2): 2 µg/mL; MIC for ART24 ([1]; source CO-33 ART 24 BHI): 2 µg/mL; MIC for ART24 ([1]; source CO-33 ART 024 S): 2 µg/mL; MIC for ART24 ([1]; source YD CO-33-10A2): 1 µg/mL; B. amyloliquefaciens MIC ART4 [2]: 4 µg/mL; B. amyloliquefaciens MIC ART24 [3]: 4 µg/mL; B. amyloliquefaciens MIC ART12 [4]: 4 µg/mL
8 | Penicillin |  |  |  |  | S | S | S | S |  |  |  | MIC for ART24 ([1]; source CO-33-12A2): ≤ 0.03 µg/mL; MIC for ART24 ([1]; source CO-33 ART 24 BHI): ≤ 0.03 µg/mL; MIC for ART24 ([1]; source CO-33 ART 024 S): 0.06 µg/mL; MIC for ART24 ([1]; source YD CO-33-10A2): ≤ 0.03 µg/mL; B. amyloliquefaciens MIC ART4 [2]: 0.12 µg/mL; B. amyloliquefaciens MIC ART24 [3]: 0.12 to 0.5 µg/mL; B. amyloliquefaciens MIC ART12 [4]: 0.5 µg/mL
9 | CC1(C)S[C@@H]2[C@H](NC(=O)[C@H](N)c3ccccc3)C(=O)N2[C@H]1C(=O)O [Ampicillin] | ≤ 0.03 | ≤ 0.03 | ≤ 0.03 | ≤ 0.03 | S | S | S | S | 0.12 (≈ 0.343 µM) | 0.25 (≈ 0.715 µM) | 0.25 (≈ 0.715 µM) | 
10 | Cc1ncc([N+](=O)[O-])n1CCO [Metronidazole, metronidazole] | > 64 | > 64 | > 64 | > 64 |  |  |  |  |  |  |  | MIC [5]: 128 µg/mL; MIC [6]: 128 µg/mL; MIC [7]: 64 µg/mL; MIC ([1]; ART24, anaerobic, source CO-33-12A2): 64 µg/mL (≈ 374 µM); MIC ([1]; ART24, anaerobic, source CO-33 ART 24 BHI): 64 µg/mL (≈ 374 µM); MIC ([1]; ART24, anaerobic, source CO-33 ART 024 S): 64 µg/mL (≈ 374 µM); MIC ([1]; ART24, anaerobic, source YD CO-33-10A2): 64 µg/mL (≈ 374 µM)
11 | NC[C@H]1O[C@H](O[C@H]2[C@H](O)[C@@H](O[C@H]3O[C@H](CO)[C@@H](O)[C@H](N)[C@H]3O)[C@H](N)C[C@@H]2N)[C@H](O)[C@@H](O)[C@@H]1O [Kanamycin] | ≤ 0.5 | ≤ 0.5 | ≤ 0.5 | ≤ 0.5 | S | S | S | S | ≤ 2 | ≤ 2 | ≤ 2 | 
12 | COc1cc(Cc2cnc(N)nc2N)cc(OC)c1OC [Trimethoprim] | ≤ 0.25 | ≤ 0.25 | ≤ 0.25 | ≤ 0.25 |  |  |  |  | ≤ 0.12 | ≤ 0.12 | ≤ 0.12 | 
13 | O=C(N[C@H](CO)[C@H](O)c1ccc([N+](=O)[O-])cc1)C(Cl)Cl [Chloramphenicol] | 2 (≈ 6.19 µM) | 2 (≈ 6.19 µM) | 2 (≈ 6.19 µM) | 2 (≈ 6.19 µM) | S | S | S | S | 2 (≈ 6.19 µM) | 4 (≈ 12.4 µM) | 4 (≈ 12.4 µM) | 
14 | O=C(O)c1cn(C2CC2)c2cc(N3CCNCC3)c(F)cc2c1=O [Ciprofloxacin] | ≤ 0.03 | ≤ 0.03 | ≤ 0.03 | ≤ 0.03 | S | S | S | S | ≤ 0.25 | ≤ 0.25 | ≤ 0.25 | 
15 | Gentamicin |  |  |  |  | S | S | S | S |  |  |  | MIC for ART24 ([1]; source CO-33-12A2): ≤ 0.06 µg/mL; MIC for ART24 ([1]; source CO-33 ART 24 BHI): ≤ 0.06 µg/mL; MIC for ART24 ([1]; source CO-33 ART 024 S): ≤ 0.06 µg/mL; MIC for ART24 ([1]; source YD CO-33-10A2): ≤ 0.06 µg/mL; B. amyloliquefaciens MIC ART4 [2]: ≤0.5 µg/mL; B. amyloliquefaciens MIC ART24 [3]: ≤0.5 µg/mL; B. amyloliquefaciens MIC ART12 [4]: ≤0.5 µg/mL
16 | CO[C@H]1/C=C/O[C@@]2(C)Oc3c(C)c(O)c4c(O)c(c(/C=N/N5CCN(C)CC5)c(O)c4c3C2=O)NC(=O)/C(C)=C\C=C\[C@H](C)[C@H](O)[C@@H](C)[C@@H](O)[C@@H](C)[C@H](OC(C)=O)[C@@H]1C [Rifampicin] | 0.25 (≈ 0.304 µM) | 0.25 (≈ 0.304 µM) | 0.25 (≈ 0.304 µM) | 0.25 (≈ 0.304 µM) | S | S | S | S | 0.25 (≈ 0.304 µM) | 0.5 (≈ 0.608 µM) | 0.5 (≈ 0.608 µM) | 
17 | CCc1c(Cl)c(O)c(Cl)c(O)c1C(=O)O[C@H]1[C@H](O)[C@H](OC)[C@H](OC/C2=C\C=C\C[C@H](O)/C(C)=C/[C@H](CC)[C@@H](O[C@@H]3OC(C)(C)[C@@H](OC(=O)C(C)C)[C@H](O)[C@@H]3O)/C(C)=C/C(C)=C/C[C@@H]([C@@H](C)O)OC2=O)O[C@@H]1C [Fidaxomicin, fidaxomicin] | 4 (≈ 3.78 µM) | 4 (≈ 3.78 µM) | 4 (≈ 3.78 µM) | 2 (≈ 1.89 µM) |  |  |  |  |  |  |  | MIC [5]: < 1 µg/mL; MIC [6]: 2 µg/mL; MIC [7]: < 1 µg/mL
